{"source": "patent US8178148B2", "about": "“Coffee drink composition” (Kao Corporation, priority 2004, dated 2012)", "tested_on": "spontaneously hypertensive rats (SHR)", "assay": "Evaluation of hypotensive effect of FH1041 with added hydroxyhydroquinone (Example 3)", "assay_type": "in vivo, rat", "conditions": "oral, HHQ added to FH1041 (300 mg/kg as total chlorogenic acids)", "experimental": "(a) As in Example 2, 12-week-old male spontaneously hypertensive rats (SHR) was bred preliminarily.\n(B) Administration Method and Amount: • Physiological saline was orally administered to a control group. An extract from raw coffee beans (“Flavor Holder FH1041”, product of T. Hasegawa Co., Ltd.) having chlorogenic acids as a main component was administered to a comparison group. The extract was prepared so that its administration amount would be 300 mg/kg in terms of the total chlorogenic acid amount. In test group 1, an administration material was prepared to permit the administration of FH1041 in an amount of 300 mg/kg in terms of a total chlorogenic acid amount and the administration of hydroxyhydroquinone in an amount of 0.03 mg/kg (0.01% relative to the total chlorogenic acid amount). In test group 2, an administration material was prepared to permit the administration of FH1041 in an amount of 300 mg/kg in terms of a total chlorogenic acid amount and the administration of hydroxyhydroquinone in an amount of 0.3 mg/kg (0.1% relative to the total chlorogenic acid amount). […]\nTest method: One group consisted of three SHR. Systolic blood pressures of the caudal artery were measured prior to oral administration and 12 hours after administration and based on them, a percent change in blood pressure was calculated. […]"}
{"smiles": "Oc1ccc(O)c(O)c1", "note": "[hydroxyhydroquinone]", "values": [{"measurement": "Influence on the hypotensive effect of chlorogenic acids", "value": "disturbed"}]}
